Where two headings read alike, the source gives them in different places.
Legend:
[1] = target: Recombinant SARS-CoV-2 3CL Protease (Severe acute respiratory syndrome coronavirus 2 (2019-nCoV) (SARS-CoV-2), UniProt P0DTD1); test: biochemical; format: biochemical; conditions: 50% SARS-CoV-2 3CL protease inhibitory concentration; read-out: IC50
SARS-CoV-2 = test: Cytopathic effect (CPE) suppression effect confirmation test using HEK293T/ACE2-TMPRSS2 cells; format: cell-based; conditions: Severe acute respiratory syndrome coronavirus 2, HEK-293T, 72 h
[2] = read-out: EC50 (50% SARS-CoV-2 infected cell death inhibitory concentration), class, HEK293T/ACE2-TMPRSS2 cells, CPE suppression, CellTiter-Glo 2.0 after 3 days culture
[3] = read-out: EC50 (50% SARS-CoV-2 infected cell death inhibitory concentration), HEK293T/ACE2-TMPRSS2 cells, CPE suppression, CellTiter-Glo 2.0 after 3 days culture
[4] = HEK293T/ACE2-TMPRSS2 cells, CPE suppression, CellTiter-Glo 2.0 after 3 days culture, read-out: EC50 (50% SARS-CoV-2 infected cell death inhibitory concentration), class

Row | SMILES | IC50 [1] | EC50 (SARS-CoV-2; [2]) | EC50 (SARS-CoV-2; [3]) | EC50 (SARS-CoV-2; [4])
1 | Cc1cncc(-n2c(=O)c(-c3ccc(F)c(Cl)c3)c(-c3ccc(C4CC4)cc3)n(CC#N)c2=O)c1 [Compound I-071] | < 10 nM | < 100 nM | – | –
2 | CC(C)(O)C1CN(c2c(-c3ccc(F)c(Cl)c3)c(=O)n(-c3cncc(Cl)c3)c(=O)n2CC#N)C1 [Compound I-072] | 0.66 nM | – | 5.21 nM | –
3 | Cc1cncc(-n2c(=O)c(-c3ccc(F)c(Cl)c3)c(N3CC4(C3)CC(F)(F)C4)n(CC#N)c2=O)c1 [Compound I-073] | < 10 nM | < 100 nM | – | –
4 | Cc1cncc(-n2c(=O)c(-c3ccc(F)c(Cl)c3)c(N3Cc4cn[nH]c4C3)n(CC#N)c2=O)c1 [Compound I-074] | < 10 nM | < 100 nM | – | –
5 | Cc1cncc(-n2c(=O)c(-c3ccc(F)c(Cl)c3)c(N3Cc4cccnc4C3)n(CC#N)c2=O)c1 [Compound I-075] | < 10 nM | < 100 nM | – | –
6 | N#CCn1c(N2CC(F)(C3CC3)C2)c(-c2ccc(F)c(Cl)c2)c(=O)n(-c2cncc(Cl)c2)c1=O [Compound I-076] | < 10 nM | < 100 nM | – | –
7 | N#CCn1c(N2CC3(CC3)C2)c(-c2ccc(F)c(Cl)c2)c(=O)n(-c2cncc(Cl)c2)c1=O [Compound I-078] | < 10 nM | < 100 nM | – | –
8 | N#CCn1c(N2CC(c3nccs3)C2)c(-c2ccc(F)c(Cl)c2)c(=O)n(-c2cncc(Cl)c2)c1=O [Compound I-079] | < 10 nM | < 100 nM | – | –
9 | N#CCn1c(N2C[C@@H]3[C@@H](O)[C@@H]3C2)c(-c2ccc(F)c(Cl)c2)c(=O)n(-c2cncc(Cl)c2)c1=O [Compound I-082] | < 10 nM | < 100 nM | – | –
10 | N#CCn1c(N2CC(c3ccccc3)C2)c(-c2ccc(F)c(Cl)c2)c(=O)n(-c2cncc(Cl)c2)c1=O [Compound I-083] | < 10 nM | < 100 nM | – | –
11 | CC(C)OC1CN(c2c(-c3ccc(F)c(Cl)c3)c(=O)n(-c3cncc(Cl)c3)c(=O)n2CC#N)C1 [Compound I-084] | < 10 nM | < 100 nM | – | –
12 | N#CCn1c(N2CC(N3CCOCC3)C2)c(-c2ccc(F)c(Cl)c2)c(=O)n(-c2cncc(Cl)c2)c1=O [Compound I-085] | < 10 nM | < 100 nM | – | –
13 | N#CCn1c(N2CC(C(F)(F)F)C2)c(-c2ccc(F)c(Cl)c2)c(=O)n(-c2cncc(Cl)c2)c1=O [Compound I-086] | 0.7 nM | – | 3.31 nM | –
14 | N#CCn1c(N2CCC(O)(C(F)(F)F)CC2)c(-c2ccc(F)c(Cl)c2)c(=O)n(-c2cncc(Cl)c2)c1=O [Compound I-087] | < 10 nM | < 100 nM | – | –
15 | Cc1cncc(-n2c(=O)c(Cc3cc(F)c(F)c(F)c3)c(N3CC(F)C3)n(CC#N)c2=O)c1 [Compound I-090] | 10 to 100 nM | – | – | < 100 nM
16 | Cc1cncc(-n2c(=O)c(Cc3cc(F)c(F)c(F)c3)c(N3CC4(CCOCC4)C3)n(CC#N)c2=O)c1 [Compound I-093] | 10 to 100 nM | – | – | < 100 nM
17 | Cc1cncc(-n2c(=O)c(Cc3cc(F)c(F)c(F)c3)c(N3CC[C@@H](C(N)=O)C3)n(CC#N)c2=O)c1 [Compound I-096] | < 10 nM | < 100 nM | – | –
18 | Cc1cncc(-n2c(=O)c(Cc3cc(F)c(F)c(F)c3)c(N3CCN(C)C(=O)C3)n(CC#N)c2=O)c1 [Compound I-098] | < 10 nM | < 100 nM | – | –
19 | Cc1cncc(-n2c(=O)c(Cc3cc(F)c(F)c(F)c3)c(N3CC4(CCOC4)C3)n(CC#N)c2=O)c1 [Compound I-101] | < 10 nM | < 100 nM | – | –
20 | Cc1cncc(-n2c(=O)c(Cc3cc(F)c(F)c(F)c3)c(N3CCC(CO)CC3)n(CC#N)c2=O)c1 [Compound I-104] | < 10 nM | < 100 nM | – | –
21 | Cc1cncc(-n2c(=O)c(Cc3cc(F)c(F)c(F)c3)c(N3CC4(C3)CC(F)(F)C4)n(CC#N)c2=O)c1 [Compound I-105] | < 10 nM | < 100 nM | – | –
22 | COC1CCN(c2c(Cc3cc(F)c(F)c(F)c3)c(=O)n(-c3cncc(C)c3)c(=O)n2CC#N)CC1 [Compound I-106] | < 10 nM | < 100 nM | – | –
23 | Cc1cncc(-n2c(=O)c(Cc3cc(F)c(F)c(F)c3)c(N3CCC(C)(O)CC3)n(CC#N)c2=O)c1 [Compound I-109] | < 10 nM | < 100 nM | – | –
24 | Cc1cncc(-n2c(=O)c(Cc3cc(F)c(F)c(F)c3)c(N3CCC4(CCOCC4)C3)n(CC#N)c2=O)c1 [Compound I-111] | < 10 nM | < 100 nM | – | –
25 | Cc1cncc(-n2c(=O)c(Cc3cc(F)c(F)c(F)c3)c(N3CCC(C(N)=O)CC3)n(CC#N)c2=O)c1 [Compound I-112] | < 10 nM | 100 to 1000 nM | – | –
26 | Cc1cncc(-n2c(=O)c(Cc3cc(F)c(F)c(F)c3)c(N3CCC4(CC3)CNC(=O)O4)n(CC#N)c2=O)c1 [Compound I-114] | < 10 nM | 100 to 1000 nM | – | –

Row | SMILES | IC50 [1] | EC50 (SARS-CoV-2; [2]) | EC50 (SARS-CoV-2; [3]) | EC50 (SARS-CoV-2; [4])
27 | Cc1cncc(-n2c(=O)c(Cc3cc(F)c(F)c(F)c3)c(N3CCC(O)(C(F)(F)F)CC3)n(CC#N)c2=O)c1 [Compound I-116] | < 10 nM | < 100 nM | – | –
28 | Cc1cncc(-n2c(=O)c(Cc3cc(F)c(F)c(F)c3)c(N3C[C@H]4CN(C)C[C@H]4C3)n(CC#N)c2=O)c1 [Compound I-117] | < 10 nM | < 100 nM | – | –
29 | Cc1cncc(-n2c(=O)c(Cc3cc(F)c(F)c(F)c3)c(N3CCC(C(F)F)CC3)n(CC#N)c2=O)c1 [Compound I-118] | < 10 nM | < 100 nM | – | –
30 | Cc1cncc(-n2c(=O)c(Cc3cc(F)c(F)c(F)c3)c(N3CCC(C(F)(F)F)CC3)n(CC#N)c2=O)c1 [Compound I-119] | < 10 nM | < 100 nM | – | –
31 | Cc1cncc(-n2c(=O)c(-c3ccc(F)c(Cl)c3)c(-c3nc4ccccc4s3)n(CC#N)c2=O)c1 [Compound I-120] | < 10 nM | < 100 nM | – | –
32 | Cn1cnc(Cn2c(=O)c(-c3cccc(Cl)c3)c(N3Cc4ccccc4C3)n(CC#N)c2=O)n1 [Compound I-122] | > 100 nM | 1000 to 5000 nM | – | –
33 | N#CCn1c(N2Cc3ccccc3C2)c(-c2cccc(Cl)c2)c(=O)n(Cc2ccc[nH]c2=O)c1=O [Compound I-124] | < 10 nM | < 100 nM | – | –
34 | N#CCn1c(Cl)c(-c2ccc(F)c(Cl)c2)c(=O)n(-c2cnc3cc(Cl)ccn23)c1=O [Compound I-126] | > 100 nM | 1000 to 5000 nM | – | –
35 | N#CCn1c(N2CC3(CCOC3)C2)c(Cc2cc(F)c(F)c(F)c2)c(=O)n(-c2cnc3cnccn23)c1=O [Compound I-127] | > 100 nM | 1000 to 5000 nM | – | –
36 | N#CCn1c(N2CC3(CCOC3)C2)c(Cc2cc(F)c(F)c(F)c2)c(=O)n(-c2cnn3ccccc23)c1=O [Compound I-128] | > 100 nM | 100 to 1000 nM | – | –
37 | N#CCn1c(N2CC3(CCOC3)C2)c(Cc2cc(F)c(F)c(F)c2)c(=O)n(-c2cnc3ccc(F)cn23)c1=O [Compound I-129] | 10 to 100 nM | – | – | 100 to 1000 nM
38 | N#CCn1c(N2CC3(CCOC3)C2)c(-c2ccc(F)c(Cl)c2)c(=O)n(-c2cnc3ccc(F)cn23)c1=O [Compound I-130] | < 10 nM | < 100 nM | – | –
39 | N#CCn1c(N2CC3(CCOC3)C2)c(-c2ccc(F)c(Cl)c2)c(=O)n(-c2cnc3cc(Cl)ccn23)c1=O [Compound I-131] | < 10 nM | < 100 nM | – | –
40 | Cc1cncc(-n2c(=O)c(-c3ccc(F)c(Cl)c3)c(-c3nc4ccccc4o3)n(CC#N)c2=O)c1 [Compound I-132] | < 10 nM | < 100 nM | – | –
41 | CC(C)(O)C1CN(c2c(-c3ccc(F)c(Cl)c3)c(=O)n(-c3cnc4cc(Cl)ccn34)c(=O)n2CC#N)C1 [Compound I-133] | 10 to 100 nM | – | – | < 100 nM
42 | N#CCn1c(N2CC3(CC3)C2)c(-c2ccc(F)c(Cl)c2)c(=O)n(-c2cnc3cc(Cl)ccn23)c1=O [Compound I-134] | < 10 nM | < 100 nM | – | –
43 | N#CCn1c(N2CC(O)(C(F)(F)F)C2)c(-c2ccc(F)c(Cl)c2)c(=O)n(-c2cnc3cc(Cl)ccn23)c1=O [Compound I-135] | 10 to 100 nM | – | – | < 100 nM
44 | N#CCn1c(N2CC(O)(C(F)(F)F)C2)c(-c2ccc(F)c(Cl)c2)c(=O)n(-c2cnc3cc(F)ccn23)c1=O [Compound I-136] | < 10 nM | < 100 nM | – | –
45 | CC1(O)CC2(CN(c3c(-c4ccc(F)c(Cl)c4)c(=O)n(-c4cnc5cc(F)ccn45)c(=O)n3CC#N)C2)C1 [Compound I-137] | 10 to 100 nM | – | – | 100 to 1000 nM
46 | CC1(O)CC2(CN(c3c(-c4ccc(F)c(Cl)c4)c(=O)n(-c4cnc5cc(Cl)ccn45)c(=O)n3CC#N)C2)C1 [Compound I-138] | 10 to 100 nM | – | – | 100 to 1000 nM
47 | N#CCn1c(N2CC(C(F)(F)F)C2)c(-c2ccc(F)c(Cl)c2)c(=O)n(-c2cnc3cc(Cl)ccn23)c1=O [Compound I-139] | 10 to 100 nM | – | – | < 100 nM
48 | N#CCn1c(N2CC3(C2)CC(F)(F)C3)c(-c2ccc(F)c(Cl)c2)c(=O)n(-c2cnc3cc(Cl)ccn23)c1=O [Compound I-140] | < 10 nM | < 100 nM | – | –
49 | N#CCn1c(N2CCC(O)(C(F)(F)F)CC2)c(-c2ccc(F)c(Cl)c2)c(=O)n(-c2cnc3cc(Cl)ccn23)c1=O [Compound I-141] | 10 to 100 nM | – | – | < 100 nM
50 | N#CCn1c(N2CC(O)(C(F)(F)F)C2)c(-c2ccc(F)c(Cl)c2)c(=O)n(-c2cncc(Cl)c2)c1=O [Compound I-142] | 0.46 nM | – | 3.35 nM | –
51 | N#CCn1c(N2CC3(CCOC3)C2)c(Cc2cc(F)c(F)c(F)c2)c(=O)n(-c2nsc3ccccc23)c1=O [Compound I-143] | > 100 nM | 1000 to 5000 nM | – | –
52 | N#CCn1c(N2CC3(CCOC3)C2)c(Cc2cc(F)c(F)c(F)c2)c(=O)n(-c2cnc3cccnn23)c1=O [Compound I-144] | > 100 nM | 100 to 1000 nM | – | –

— patent US20250092056A1, “URACIL DERIVATIVES HAVING VIRUS REPLICATION INHIBITORY ACTIVITY AND PHARMACEUTICAL COMPOSITION COMPRISING THE SAME” (Shionogi & Co., Ltd., priority 2022, published 2025)
